This note sets out measurements from PubChem BioAssay AID463074 (Broad Institute, 2010).

As usually defined, the AC50 is the concentration at which the activity in the assay is half-maximal.

The source made the active and inactive calls.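 The calls were made as follows: active = AC50 no more than tenfold above the top dose tested, or full inhibition at every dose with a flat fit (cut at about 19 µM in these data); inconclusive = flat curve fit with inhibition between 30% and 70%, or poor fit; inactive = AC50 more than tenfold above the top dose tested.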

The test has as its system HMLE_sh_eGFP viability, CellTiter-Glo luminescence, 72 h. Nature of the test: cytotoxicity in HMLE control line with eGFP shRNA, dose response, counter-screen for HMLE_sh_ECad selective toxicity project, cell-based, HMLE_sh_eGFP, luminescence (AID 463074).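 Also: potency for loss of viability as luminescence drops below DMSO wells.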 Background: A counterscreen serves to expose hits that act by an unwanted route or on another target.
Regarding `CC1(C)CCC[C@]2(C)[C@H]3Cc4cc(O)ccc4O[C@]3(C)CC[C@@H]12`, the AC50 is 6.89 µM.
To `O=C(CCCN1C(=O)/C(=C/c2ccccc2)SC1=S)NCCCn1ccnc1` belongs > 19.5 µM (inactive); to `CC(=O)Oc1ccc(C(=O)Nc2ccc(C3(C#N)CCCC3)cc2)cc1`, 8.24 µM; to `CCOCCCNC(=O)/C(C#N)=C/c1ccc([N+](=O)[O-])o1`, 8.21 µM.
Take `CN(C)/C=C(\C=N\OCc1ccc(Cl)cc1Cl)C(=O)Nc1ccc(Cl)c(Cl)c1`: the AC50 was 4.22 µM.
Then `COc1cc(CN2CCN(c3cccc(Cl)c3)CC2)cc(OC)c1OC`, with 2.58 µM; and `COC(=O)c1ccccc1NCc1cc(=O)oc2cc(O)c(O)cc12`, with 10.9 µM.
Then `O=C(Nc1ccc(Br)cn1)c1cccc(-c2cc3ccccc3oc2=O)c1`, with 12.3 µM; and `O=C(N/N=C/c1ccc(O)cc1O)/C(=C/c1ccccc1)CCO`, with 7.22 µM.
To `Cc1ccc2nc(-c3ccccn3)c(Nc3ccccc3C)n2c1` belongs 5.04 µM; to `CCN(CC)CCCNC(=S)N1CCN(c2nc(-c3ccccc3)cs2)CC1`, 5.65 µM.
Take `COc1ccc(-c2cn(CCc3c[nH]c4ccccc34)nn2)cc1`: the AC50 was 2.69 µM.
To `C=CCn1c(SCCC)nc2sc3c(c2c1=O)CCc1ccccc1-3` belongs 2.26 µM.
Consider `CC1(C)CN(c2ccccc2)N(C(=O)c2ccc(F)cc2)C1=O`, for which the AC50 was 5.6 µM.
To `COc1ccc(CCNC(=O)c2coc(=O)c(Br)c2)cc1` belongs 15 µM; to `OC(CNCCc1ccc(C(F)(F)F)cc1)COc1cccc2ccccc12` (configuration not stated), 3.54 µM; to `Cc1cc(-c2ccccc2)nc(N/N=C/c2ccc(O)cc2O)n1`, 7.96 µM.
To `CCOC(=O)c1c(-c2ccccc2)csc1NC(=O)c1nn(CC)cc1Br` belongs 0.478 µM; to `Cc1ccc2sc(N(CCCN(C)C)C(=O)c3ccc(S(=O)(=O)N4CCCCCC4)cc3)nc2c1C`, 7.04 µM; to `CN1CCN(c2ccc(NC(=O)c3ccc(C#N)cc3F)cc2Cl)CC1`, 19.7 µM.
Then `C[C@]12CC[C@H]3C(CCC4(O)CC(O)CC[C@]34C=O)C1=CC[C@H]2c1ccc(=O)oc1` (some centres not stated), with 3.6 µM.
Take `Nc1nc(Cl)nc2c1ncn2[C@H]1C[C@H](O)[C@@H](CO)O1`: the AC50 was 0.318 µM.
To `CC(C)(C)c1cc(NCc2ccccn2)n2ncc(-c3ccccc3)c2n1` belongs 6.85 µM.
Then `O=[N+]([O-])/C=C/c1cn(Cc2ccc(F)cc2)c2ccccc12`, with 6.86 µM.
To `O=C(O)c1ccc(Cl)c(S(=O)(=O)N(Cc2ccccc2)c2ccc(F)cc2)c1` belongs 14.5 µM; to `Cc1ccc(N=Nc2ccc(O)cc2)c(Br)c1`, 8.42 µM.
`Cc1ccc(-c2ccc([C@H]3[C@@H]4C=CCC[C@@]4(C)C(=O)N3Cc3ccccc3)c(F)c2)cc1`: the AC50 is 5.32 µM.
Take `CCN(Cc1ccccc1)S(=O)(=O)c1ccc(C(=O)N(CCCN(C)C)c2nc3cc(C)cc(C)c3s2)cc1`: the AC50 was 3.75 µM.
Consider `CC/C(=N\Nc1ccccc1)c1c(O)n(-c2ccc(OC)cc2)c(=O)[nH]c1=O`, for which the AC50 was 2.13 µM.
To `COc1ccc(NS(=O)(=O)c2cccc(C(=O)N/N=C(\C)c3ccc(-n4ccnc4)cc3)c2)cc1` belongs > 19.5 µM (inactive); to `COc1ccc(-c2cc(C(F)(F)F)nc(S(C)(=O)=O)n2)cc1`, 3.56 µM.
To `CC(C)(C)c1ccc(Oc2ccc(NC(=O)c3cccs3)cn2)cc1` belongs 2.88 µM.
Consider `CNC[C@H](CC1CCCCC1)NC[C@H](CO)NCCc1cccc(C(F)(F)F)c1`, for which the AC50 was 6.71 µM.
Regarding `Cc1ccc(S(=O)(=O)N2CCN(C(=O)COc3ccc(NC(=O)c4ccco4)cc3)CC2)cc1`, the AC50 is > 19.5 µM (inactive).
Then `CCOC(=O)c1c(NC(=O)C(c2ccccc2)c2ccccc2)sc2c1C1CCN2CC1`, with 2.84 µM; and `Cc1ccc(OCC(O)Cn2c3ccccc3c3ccccc32)cc1` (configuration not stated), with 6.78 µM.
As for `CNc1nc(SCc2ccccc2Cl)nc2c1CCCC2`, the AC50 was 8.77 µM.
To `Clc1cc2cccnc2c2ncccc12` belongs 3.56 µM.
Then `CC(C)(C)c1cc(-c2nc(N)nc(N)n2)c(O)c(C(C)(C)C)c1`, with 3.57 µM; and `Cc1sc2nc(SCCN(C)C)n(-c3ccccc3)c(=O)c2c1-c1ccc(F)cc1`, with 10.2 µM; and `O=C(c1ccc(CSc2ccccc2)cc1)N1CCN(c2ccccc2)CC1`, with 9.49 µM.
To `COc1ccc(C(=O)/C=C2/C(=O)Nc3ccccc32)cc1` belongs 6.73 µM; to `Cc1ccc(C2(c3noc(CN4CCC(c5ccncc5)CC4)n3)CCCC2)cc1`, 2.32 µM; to `COc1cc(OC)cc(-c2sc3ccc(OC)cc3c2-c2ccc(O)cc2)c1`, 3.41 µM.
For `O=C(Nc1cccc(S(=O)(=O)Nc2ccc(Cl)cc2)c1)c1cc2c(s1)CCCC2`, the AC50 was 2.79 µM.
For `c1ccc(-c2nnc3sc(CN4CCc5ccccc54)cn23)cc1`, the AC50 was 3.51 µM.
Then `Nc1c(S(=O)(=O)c2cccs2)c2nc3ccccc3nc2n1/N=C/c1cccc(O)c1`, with 3.87 µM; and `CCCSc1nsc(NC(=O)Nc2ccc(F)cc2F)n1`, with 4.87 µM.
Then `CCC1=NN2C(=N)/C(=C/c3c(C)nn(-c4ccccc4)c3Cl)C(=O)N=C2S1`, with > 19.5 µM (inactive).
To `O=C(Nc1ccc(-c2csc(Nc3cccc(C(F)(F)F)c3)n2)cc1)c1cc([N+](=O)[O-])cc(C(F)(F)F)c1` belongs 1.93 µM; to `CCOC(=S)SCC(=O)Nc1nc(-c2ccc(Br)cc2)cs1`, 3.54 µM.
For the compound `Cc1ccc(Oc2nc(CN3CCOCC3)nc3sc4c(c23)CCC(C)C4)cc1C` (configuration not stated), the AC50 was 6.32 µM.
To `COc1cc(OC)c(C=O)c(OC(=O)N2CCOCC2)c1` belongs > 19.5 µM (inactive); to `Cc1cc(C)n(Cc2ccc(NC(=O)c3ccc(COc4ccccc4Br)cc3)cc2)n1`, 3.03 µM; to `CCCc1cc(-c2nc(-c3ccc(Cl)cc3)cs2)ccn1`, 13 µM.
Then `COC(=O)c1cccc(NC(=O)Nc2ccc(Cl)c(Cl)c2)c1`, with 11.4 µM.
Then `FC(F)(F)c1cc(-c2ccc(Cl)cc2)nc(NCc2cccnc2)n1`, with 14 µM; and `Cc1cccc(OCc2n(CC(=O)OC3CC(C)CCC3C(C)C)c3ccccc3[n+]2C)c1` (configuration not stated), with 3.47 µM.
In the case of `O=C(c1ccc(Cl)cc1)c1c[nH]c(C(=O)NNc2ccccc2)c1`, the AC50 is 1.85 µM.
Then `Cc1cc(Nc2nc(Cl)c(Cl)cc2Cl)n(-c2ccccc2)n1`, with 11.3 µM; and `Cc1ccc(C(C)C)c(OCc2nn(CC(=O)c3ccc(Cl)cc3)c3[n+]2CCCCC3)c1`, with 3.22 µM; and `O=C(/C=C/c1ccccc1)NC(NC(=S)Nc1cc(Cl)ccc1Cl)C(Cl)(Cl)Cl` (configuration not stated), with 6.28 µM.
Then `Cc1cc2c(cc1C)C(c1ccccc1OC(C)C)CC(=O)N2` (configuration not stated), with 1.54 µM.
To `CCN(CC)CCCNC(=O)c1cc(-c2ccccc2)c(N2CCCCC2)s1` belongs 3.29 µM.
`CC1=CC(C)[C@H](/C=N/n2c(=O)[nH]c3c([nH]c4ccc(Br)cc43)c2=O)C(C)C1` (some centres not stated): the AC50 is 1.46 µM.
Then `Cc1cc(C(C)(C)C)c(OC(=O)[C@@H]2OC(c3ccccc3)=C[C@H]2c2ccccc2)c(C(C)(C)C)c1`, with 7.77 µM.
Then `C(=C\c1nc(N2CCCCCC2)c2ccccc2n1)/c1ccccc1`, with 5.54 µM.
Then `O=C(/C=C/c1ccc2c(c1)OCO2)NCCSCc1ccc(Cl)cc1`, with 0.957 µM; and `CC(=O)N1c2ccc(Cl)cc2C2C=CCC2C1c1cccc2ccccc12` (configuration not stated), with 5.36 µM.
Take `COc1ccc(N(CC(=O)Nc2cc(C)ccc2C)S(=O)(=O)c2c(C)noc2C)cc1`: the AC50 was > 19.5 µM (inactive).
Then `C[C@@H]1O[C@@H](O[C@H]2C[C@@H](O)[C@]3(CO)[C@H]4[C@H](O)C[C@]5(C)[C@@H](C6=CC(=O)OC6)CC[C@]5(O)[C@@H]4CC[C@]3(O)C2)[C@H](O)[C@H](O)[C@H]1O`, with below 0.16 µM; and `CCc1c(C2(O)CCCCC2)[nH]c2ccc(C(F)(F)F)cc12`, with 3.56 µM; and `O=C(NC12CC3CC(CC(C3)C1)C2)c1ccc(-c2ccccc2Cl)o1`, with 3.81 µM.
With `CN1CCN(CCCN2c3ccccc3Sc3ccc(Cl)cc32)CC1`, the AC50 was 5.25 µM.
Then `S=C(Nc1ccccc1)Nc1nc2ccccc2n1CCOc1ccc(Br)cc1`, with 14 µM.
Then `Cc1cccc(OCCNC(=O)c2cccc(Oc3ccc(C(F)(F)F)cc3[N+](=O)[O-])c2)c1`, with 6.38 µM; and `CCN(CC)CCNC(=O)c1[nH]c2ccc(OCc3ccccc3)cc2c1C`, with 1.81 µM.
With `COc1cc2nc(Nc3ccc(C)c(Cl)c3)nc(N)c2cc1OC`, the AC50 was 6.97 µM.
To `Cc1ccc(N2C(=O)NC(=O)/C(=C/C=C/c3ccco3)C2=O)cc1` belongs 3.29 µM; to `CCC(C)Sc1ccc(-c2nc3cnccn3c2NC2CCCCC2)cc1` (configuration not stated), 3.73 µM.
To `CC(C)(C)OC(=O)N1CCC(NC(=O)c2[nH]cnc2C(=O)Nc2ccc(Cl)cc2)CC1` belongs 5.94 µM.
Then `COc1cc(/C=N/NC(=O)c2cc(C34CC5CC(CC(C5)C3)C4)[nH]n2)ccc1O`, with 0.24 µM; and `COc1cccc(-c2sc3ccc(OC)cc3c2-c2ccc(O)cc2)c1`, with 3.7 µM.
As for `Cc1ccc(NC(=O)CN(C)C(=O)Cn2ncc(Cl)c(Cl)c2=O)cc1`, the AC50 was 4.22 µM.
To `CCN1C(=O)C(=Cc2cccc(OC)c2Oc2ccc([N+](=O)[O-])cc2[N+](=O)[O-])SC1=S` belongs 2.27 µM.
To `Cc1cccc(NC(=O)c2nc[nH]c2C(=O)NC2CCN(C(=O)OC(C)(C)C)CC2)c1` belongs 6.79 µM; to `COc1ccc(C2=NN(C(=O)COC(=O)c3ccc(S(C)(=O)=O)c([N+](=O)[O-])c3)C(c3ccco3)C2)cc1` (configuration not stated), 3.84 µM; to `CN1C2CCC1/C(=C\c1ccccc1)C(=O)/C2=C\c1ccccc1`, 4.24 µM.
Then `CC(C)c1ccc(/C=C/C(=O)NC2=NCCS2)cc1`, with > 19.5 µM (inactive); and `CCCc1ccc(O)c(N=Cc2cc(Br)cc(OCC)c2O)c1`, with 9.03 µM.
For `COc1ccc(C(=O)Nc2ccc(Nc3ccccc3)cc2)cc1[N+](=O)[O-]`, the AC50 is 4.19 µM.
Then `c1ccc(CN2CCC(Nc3nc(-c4ccccc4)nc4ccccc34)CC2)cc1`, with 6.67 µM.
